Source: US20250360134A1, “6-6 OR 5-6 FUSED BICYCLIC COMPOUNDS COMPRISING A PYRI(MI)DINE RING USEFUL IN THE|TREATMENT OF INFECTIOUS DISEASES” (INSTITUT NATIONAL DE LA SANTE ET DE LA RECHERCHE MEDICALE …, priority 2020, published 2025)
Counter-ions that a name gives are not always drawn. Like-named read-outs stand apart in the source and are kept apart here.

What was measured:
[1] = system: Plasmodium falciparum 3D7; experiment: In vitro antiplasmodial activity, SYBR Green I, strain 3D7
Plasmodium falciparum W2 = experiment: In vitro antiplasmodial activity, SYBR Green I, strain W2
Experimental: The in vitro antiplasmodial activities were tested over concentrations ranging from 39 to 40 μm against culture-adapted Plasmodium falciparum: reference strains 3D7 and W2. […] The parasites were cultivated in RPMI medium (Sigma-Aldrich, Lyon, France) supplemented with 0.5% Albumax I (Life Technologies Corporation, Paisley, UK), hypoxanthine (Sigma-Aldrich), and gentamicin (Sigma-Aldrich) with human erythrocytes and were incubated at 37° C. in a candle jar, as described in Desjardins R E et al., Antimicrob Agents Chemother, 1979; 16:710-18.
The P. falciparum drug susceptibility test was carried out in 96-well flat bottom sterile plates in a final volume of 250 μL. After a 48-hour incubation with the drugs, quantities of DNA in treated and control cultures of parasites in human erythrocytes were quantified using the SYBR Green I (Sigma-Aldrich) fluorescence-based method as described in Bennett T N et al, Antimicrob Agents Chemother, 2004; 48:1807-10. Briefly, after incubation, plates were frozen at −20° C. until use. Plates were then thawed for 2 hours at room temperature, and 100 μL of each homogenized culture was transferred to a well of a 96-well flat bottom sterile black plate (Nunc, Inc., Rochester, NY) that contained 100 μL of the SYBR Green I lysis buffer (2×SYBR Green, 20 mM Tris base pH 7.5, 5 mM EDTA, 0.008% w/v saponin, 0.08% w/v Triton X-100). […] Plates were incubated for 1 hour at room temperature and then read on a fluorescence plate reader (Tecan, Grödig, Austria) using excitation and emission wavelengths of 485 and 535 nm, respectively. Concentrations inhibiting 50% of the parasite's growth (half maximal inhibitory concentration or IC50 values) were then calculated from the obtained experimental results by non-linear regression analysis of data from dose-response curves, using TableCurve 2D version 5.0 software (Systat Software, San Jose, CA). IC50 values are reported as means calculated from three independent experiments, as described in H. Kaddouri et al., Antimicrob.

[2] = system: Plasmodium telomeric sequence FPf1T; experiment: FRET-melting, FPf1T; settings: K+ condition, 2 μM compound, 0.2 μM oligonucleotide
[3] = system: Plasmodium telomeric sequence FPf8T; experiment: FRET-melting, FPf8T; settings: K+ condition, 2 μM compound, 0.2 μM oligonucleotide
[4] = system: Trypanosoma 9 and 11 chromosomic sequence FTrypBT; experiment: FRET-melting, FTrypBT; settings: K+ condition, 2 μM compound, 0.2 μM oligonucleotide
[5] = system: human duplex sequence FdxT; experiment: FRET-melting, FdxT; settings: duplex control, K+ condition, 2 μM compound, 0.2 μM oligonucleotide
[6] = system: human telomeric sequence F21T; experiment: FRET-melting, F21T; settings: K+ condition, 2 μM compound, 0.2 μM oligonucleotide
[7] = system: T. brucei brucei AnTat 1.9; experiment: In vitro antitrypanosomal activity, Alamar Blue assay; assay type: cell-based, Trypanosoma brucei brucei; settings: Trypanosoma brucei, read-out: IC50 T. brucei brucei
Experimental: The effects of the tested compounds on the growth of T. brucei brucei were assessed using an Alamar Blue® assay described in B. Raz et al., Acta Trop. 1997, 68, 139. T. brucei brucei AnTat 1.9 (IMTA, Antwerpen, Belgium) was cultured in MEM with Earle's salts, supplemented according to the protocol disclosed in T. Baltz et al., EMBO J. 1985, 4, 1273, with the following modifications: 0.5 mM mercaptoethanol (Sigma-Aldrich), 1.5 mM 1-cysteine (Sigma-Aldrich), 0.05 mM bathocuproine sulfate (Sigma-Aldrich), and 20% heat-inactivated horse serum (Gibco, France) at 37° C. and 5% CO2. Samples were incubated at an average density of 2000 parasites/well in sterile 96-well plates (Fisher, France) with various concentrations of compounds dissolved in 0.9% NaCl. All doses were tested in duplicate. Appropriate controls treated with solvents 0.9% NaCl or DMSO or with suramin, pentamidine, eflornithine, and fexinidazole (reference drugs purchased from Sigma-Aldrich and Fluorochem, UK) were added to each set of experiments. After a 69-hour incubation at 37° C., 10 μl of the viability marker Alamar Blue (Fisher) was added to each well, and the plates were incubated for 5 hour. The plates were read in a PerkinElmer ENSPIRE (Germany) microplate reader using an excitation wavelength of 530 nm and an emission wavelength of 590 nm. The IC50 was defined as the concentration of drug necessary to inhibit by 50% the activity of T. brucei brucei compared to the control. IC50 values were calculated using a non-linear regression analysis of dose-response curves performed using GraphPad Prism software (USA). IC50 values were calculated from three independent experiments.

[8] = Plasmodium falciparum, 3D7, 48 h, read-out: IC50 Plasmodium falciparum 3D7, chloroquine-sensitive strain 3D7, 48-hour incubation
[9] = Plasmodium falciparum, W2, 48 h, read-out: IC50 Plasmodium falciparum W2, chloroquine-resistant strain W2, 48-hour incubation
[10] = 69-hour incubation, Alamar Blue
[11] = read-out: IC50 Plasmodium falciparum 3D7, chloroquine-sensitive strain 3D7, 48-hour incubation, oxalate
[12] = read-out: IC50 Plasmodium falciparum 3D7, chloroquine-sensitive strain 3D7, 48-hour incubation
[13] = read-out: IC50 Plasmodium falciparum W2, chloroquine-resistant strain W2, 48-hour incubation

Row | Structure (SMILES) | IC50 [1, 8] | IC50 (Plasmodium falciparum W2; [9]) | FRET-melting values in K+ conditions at 2 μM ΔTm FPf1T [2] | FRET-melting values in K+ conditions at 2 μM ΔTm FPf8T [3] | FRET-melting values in K+ conditions at 2 μM ΔTm FtryBT [4] | FRET-melting values in K+ conditions at 2 μM ΔTm FdxT [5] | FRET-melting values in K+ conditions at 2 μM ΔTm F21T [6] | further results
1 | CN1CCN(CCCNCc2ccc(-n3ccc4c(-c5ccccc5)nc(Cl)nc43)cc2)CC1 [Compound 23B, 2-Chloro-7-(4-[(3-(4-methylpiperazin-1-yl)propyl)aminomethyl]phenyl)-4-phenyl-7H-pyrrolo[2,3-d]pyrimidine oxalate] | 380 ± 250 nM | 9140 nM | – | – | – | – | – | –
2 | CN(C)CCCNCc1ccc(-c2nc3c(c(-c4ccc(CNCCCN(C)C)cc4)n2)CCN(C(=O)OC(C)(C)C)C3)cc1 [Compound 24B, Tert-butyl 2,4-bis{4-[(3-dimethylaminopropyl)aminomethyl]phenyl})-5,6-dihydropyrido[3,4-d]pyrimidine-7(8H)-carboxylate oxalate] | 1630 ± 250 nM | 180 ± 40 nM | 9.1 °C | 11.6 °C | 7.6 °C | −0.7 °C | 10.3 °C | IC50 [7, 10]: 780 ± 60 nM
3 | CN(C)CCCNCc1ccc(-n2ccc3c(-c4ccccc4)nc(-c4ccccc4)nc32)cc1 [Compound 12B, 7-(4-[(3-Dimethylaminopropyl)aminomethyl]phenyl)-2,4-diphenyl-7H-pyrrolo[2,3-d]pyrimidine oxalate] | 380 ± 250 nM | 9140 nM | – | – | – | – | – | –
4 | CN1CCN(CCCCNCc2ccc(-c3nc(-c4ccc(CNCCCCN5CCN(C)CC5)cc4)c4cnn(-c5ccccc5)c4n3)cc2)CC1 [Compound 39B, 4,6-Bis{4-[(4-(4-methylpiperazin-1-yl)butyl)aminomethyl]phenyl}-1-phenyl-1H-pyrazolo[3,4-d]pyrimidine oxalate] | – | 1530 ± 90 nM | – | – | – | – | – | IC50 [1, 11]: 1830 ± 470 nM
5 | CN(C)CCCNCc1ccc(-c2cc(Cl)nc3c2ccn3-c2ccccc2)cc1 [Compound 47B, 6-Chloro-4-{4-[(3-dimethylaminopropyl)aminomethyl]phenyl}-1-phenyl-1H-pyrrolo[2,3-b]pyridine oxalate] | 150 ± 20 nM | 720 ± 300 nM | 3.3 °C | 4.0 °C | 4.3 °C | −0.2 °C | 2.8 °C | –
6 | CN(C)CCCCCNCc1ccc(-c2nc(-c3ccc(CNCCCCCN(C)C)cc3)c3cnn(-c4ccccc4)c3n2)cc1 [Compound 41B] | – | – | 36.4 °C | 34.9 °C | 33.0 °C | 9.7 °C | 34.0 °C | IC50 [1, 12]: 1990 ± 900 nM; IC50 (Plasmodium falciparum W2; [13]): 1990 ± 120 nM
7 | CN(C)CCCNCc1ccc(-n2ccc3c(-c4ccccc4)nc(Cl)nc32)cc1 [Compound 22B, 2-Chloro-7-(4-[(3-dimethylaminopropyl)aminomethyl]phenyl)-4-phenyl-7H-pyrrolo[2,3-d]pyrimidine oxalate] | 800 ± 410 nM | 730 ± 220 nM | – | – | – | – | – | IC50 ([7]; 69 h): 30 nM
8 | COC(=O)C(N)CCCCNCc1ccc(-c2nc(-c3ccc(CNCCCCC(N)C(=O)OC)cc3)c3ccn(C)c3n2)cc1 (stereo not drawn) [Compound 11B, 2,4-Bis{4-[(5-amino-5-(methoxycarbonyl)pentyl)aminomethyl]phenyl}-7-methyl-7H-pyrrolo[2,3-d]pyrimidine oxalate] | > 40000 nM | 70 ± 10 nM | – | – | – | – | – | IC50 [7, 10]: 5040 ± 730 nM
9 | CN(C)CCCNCc1ccc(-c2nc(Cl)nc3c2ncn3-c2ccccc2)cc1 [Compound 43B, 2-Chloro-4-{4-[(3-dimethylaminopropyl)aminomethyl]phenyl}-7-phenyl-7H-imidazo[4,5-d]pyrimidine oxalate] | 1530 ± 390 nM | 830 ± 170 nM | 2.4 °C | 3.3 °C | 2.7 °C | 0.04 °C | 1.7 °C | –
10 | CN(C)CCCNCc1cc(-c2nc(Cl)nc3c2ccn3-c2ccccc2)cs1 [Compound 20B, 2-Chloro-4-{2-[(3-dimethylaminopropyl)aminomethyl]thien-4-yl}-7-phenyl-7H-pyrrolo[2,3-d]pyrimidine oxalate] | 590 ± 170 nM | 13600 ± 430 nM | – | – | – | – | – | IC50 ([7]; 69 h): 80 nM
11 | CN1CCN(CCCCNCc2ccc(-c3nc(-c4ccc(CNCCCCN5CCN(C)CC5)cc4)c4cnn(-c5ccccc5)c4n3)cc2)CC1 [Compound 42B] | – | – | 33.2 °C | 32.1 °C | 30. ° C. | 6.8 °C | 30.2 °C | IC50 [1, 12]: 700 ± 150 nM; IC50 (Plasmodium falciparum W2; [13]): 2370 ± 130 nM
12 | CN(C)CCCCNCc1ccc(-c2nc(-c3ccc(CNCCCCN(C)C)cc3)c3cnn(-c4ccccc4)c3n2)cc1 [Compound 37B, 4,6-Bis{4-[(4-dimethylaminobutyl)aminomethyl]phenyl}-1-phenyl-1H-pyrazolo[3,4-d]pyrimidine] | – | 1180 ± 120 nM | – | – | – | – | – | –
13 | CN(C)CCCCNCc1ccc(-c2nc(-c3ccc(CNCCCCN(C)C)cc3)c3ncn(-c4ccccc4)c3n2)cc1 [Compound 40B, 2,4-Bis{4-[(4-dimethylaminobutyl)aminomethyl]phenyl}-7-phenyl-7H-imidazo[4,5-d]pyrimidine oxalate] | 4740 ± 900 nM | 1770 ± 90 nM | 35.1 °C | 33.9 °C | 30.3 °C | 8.51 °C | 31.68 °C | –
14 | CN(C)CCCCCNCc1ccc(-c2nc(-c3ccc(CNCCCCCN(C)C)cc3)c3cnn(-c4ccccc4)c3n2)cc1 [Compound 38B, 4,6-Bis{4-[(5-dimethylaminopentyl)aminomethyl]phenyl}-1-phenyl-1H-pyrazolo[3,4-d]pyrimidine oxalate] | – | – | – | – | – | – | – | IC50 [1, 11]: 350 ± 90 nM; IC50 (Plasmodium falciparum W2; read-out: IC50 Plasmodium falciparum W2, chloroquine-resistant strain W2, 48-hour incubation, oxalate): 4730 ± 280 nM
15 | CN1CCN(CCCNCc2ccc(-c3nc(Cl)nc4c3ccn4-c3ccccc3)cc2)CC1 [Compound 18B, 2-chloro-4-{4-[(3-(4-methylpiperazin-1-yl)propyl)aminomethyl]phenyl}-7-phenyl-7H-pyrrolo[2,3-d]pyrimidine oxalate] | 680 ± 130 nM | 6960 ± 650 nM | – | – | – | – | – | IC50 ([7]; 69 h): 60 nM
16 | CN(C)CCCNCc1ccc(-c2nc(-c3ccc(CNCCCN(C)C)cc3)c3cnn(-c4ccccc4)c3n2)cc1 [Compound 36B, 4,6-Bis{4-[(3-dimethylaminopropyl)aminomethyl]phenyl}-1-phenyl-1H-pyrazolo[3,4-d]pyrimidine oxalate] | 2510 ± 250 nM | 930 ± 150 nM | – | – | – | – | – | –
